Experimental findings from ChEMBL document CHEMBL3822390, “Synthesis, characterization and anti-cancer activity of a peptide nucleolipid bioconjugate” (2016) are described below.

Common to all, as to format: functional
Assay [1] in a line: Cytotoxicity against human UACC257 cells assessed as cell growth at 10 uM after 48 hrs by SRB assay. Conditions: UACC-257, 48 h, read-out: Activity.
For a further assay, the system named is SN12C. Kind of assay: Cytotoxicity against human SN12C cells assessed as cell growth at 10 uM after 48 hrs by SRB assay. Conditions: read-out: Activity. For orientation: The SRB assay estimates cell density from bound dye.
The nature of assay [2]: Cytotoxicity against human HCT116 cells assessed as cell growth at 10 uM after 48 hrs by SRB assay. Conditions: HCT-116, 48 h, read-out: Activity.
Assay [3] is described as follows: Cytotoxicity against human TK10 cells assessed as cell growth at 10 uM after 48 hrs by SRB assay. Particulars: TK-10, 48 h, read-out: Activity.
The subject of another assay is NCI-H460. The assay is described as follows: Cytotoxicity against human NCI-H460 cells assessed as cell growth at 10 uM after 48 hrs by SRB assay. Particulars: NCI-H460, 48 h, read-out: Activity.
Assay [4] deals with NCI-H226. Kind of assay: Cytotoxicity against human NCI-H226 cells assessed as cell mortality at 10 uM after 48 hrs by SRB assay. Particulars: NCI-H226, 48 h.
Assay [5] has as its system A498. The assay is described as follows: Cytotoxicity against human A498 cells assessed as cell growth at 10 uM after 48 hrs by SRB assay. Conditions: A498, 48 h, read-out: Activity.
Assay [6] in a line: Cytotoxicity against human MOLT4 cells assessed as cell growth at 10 uM after 48 hrs by SRB assay. Particulars: MOLT-4, 48 h, read-out: Activity.
The next assay deals with CCRF-CEM. Kind of assay: Cytotoxicity against human CCRF-CEM cells assessed as cell growth at 10 uM after 48 hrs by SRB assay. Particulars: read-out: Activity.
Assay [7] in a line: Cytotoxicity against human OVCAR3 cells assessed as cell growth at 10 uM after 48 hrs by SRB assay. Particulars: OVCAR-3, 48 h, read-out: Activity.
Assay [8] can be described thus: Cytotoxicity against human SKOV3 cells assessed as cell growth at 7.25 uM after 48 hrs by SRB assay. Particulars: SK-OV-3, 48 h, read-out: Activity.
Assay [9] can be described thus: Cytotoxicity against human BT549 cells assessed as cell growth at 7.25 uM after 48 hrs by SRB assay. Conditions: BT-549, 48 h, read-out: Activity.
The test system of assay [10] is A498. The assay is described as follows: Cytotoxicity against human A498 cells assessed as cell growth at 7.25 uM after 48 hrs by SRB assay. Conditions: A498, 48 h, read-out: Activity.
In a further assay the test system is KM12. The assay is described as follows: Cytotoxicity against human KM12 cells assessed as cell growth at 7.25 uM after 48 hrs by SRB assay. Particulars: KM12, 48 h, read-out: Activity.
The test system of assay [11] is NCI-H522. Kind of assay: Cytotoxicity against human NCI-H522 cells assessed as cell growth at 7.25 uM after 48 hrs by SRB assay. Particulars: NCI-H522, 48 h, read-out: Activity.
Assay [12] in a line: Cytotoxicity against human HCC2998 cells assessed as cell growth at 7.25 uM after 48 hrs by SRB assay. Conditions: HCC 2998, 48 h, read-out: Activity.
The next assay concerns EKVX. Kind of assay: Cytotoxicity against human EKVX cells assessed as cell growth at 7.25 uM after 48 hrs by SRB assay. Particulars: read-out: Activity.
Assay [13] in a line: Cytotoxicity against human RXF393 cells assessed as cell growth at 7.25 uM after 48 hrs by SRB assay. Particulars: RXF 393, 48 h, read-out: Activity.
The nature of assay [14]: Cytotoxicity against human UO31 cells assessed as cell growth at 2.13 uM after 48 hrs by SRB assay. Conditions: UO-31, 48 h, read-out: Activity.
Assay [15] deals with NCI-H522. Kind of assay: Cytotoxicity against human NCI-H522 cells assessed as cell mortality at 2.13 uM after 48 hrs by SRB assay. Conditions: NCI-H522, 48 h.
The subject of another assay is A549. The assay is described as follows: Cytotoxicity against human A549 cells assessed as cell growth at 2.13 uM after 48 hrs by SRB assay. Conditions: A549, 48 h, read-out: Activity.
The test system of a further assay is ACHN. Kind of assay: Cytotoxicity against human ACHN cells assessed as cell growth at 2.13 uM after 48 hrs by SRB assay. Particulars: read-out: Activity.
Assay [16] in a line: Cytotoxicity against human DU145 cells assessed as cell growth at 2.13 uM after 48 hrs by SRB assay. Conditions: DU-145, 48 h, read-out: Activity.
Another assay deals with SK-MEL-5. Kind of assay: Cytotoxicity against human SK-MEL-5 cells assessed as cell growth at 2.13 uM after 48 hrs by SRB assay. Particulars: SK-MEL-5, 48 h, read-out: Activity.
The next assay has as its system MDA-MB-435. The assay is described as follows: Cytotoxicity against human MDA-MB-435 cells assessed as cell growth at 2.13 uM after 48 hrs by SRB assay. Conditions: MDA-MB-435, 48 h, read-out: Activity.
Assay [17] has as its system NCI-H226. The assay is described as follows: Cytotoxicity against human NCI-H226 cells assessed as cell growth at 2.13 uM after 48 hrs by SRB assay. Particulars: NCI-H226, 48 h, read-out: Activity.
Assay [18] in a line: Cytotoxicity against human UACC257 cells assessed as cell growth at 2.13 uM after 48 hrs by SRB assay. Conditions: UACC-257, 48 h, read-out: Activity.

The mortality is the percentage killed. For the compound `CC(C)C[C@H](NC(=O)[C@H](CCCCN)NC(=O)[C@H](C)NC(=O)[C@H](CC(C)C)NC(=O)[C@H](CCCCN)NC(=O)[C@H](CCCCN)NC(=O)[C@H](C)NC(=O)[C@H](CC(C)C)NC(=O)[C@H](CCCCN)NC(=O)[C@H](C)NC(=O)[C@H](CC(C)C)NC(=O)[C@H](CCCCN)NC(=O)[C@@H](N)CC(=O)O)C(=O)N[C@@H](C)C(=O)N[C@@H](CCCCN)C(=O)N[C@@H](C)C(=O)N[C@@H](CCCCN)C(N)=O`, the growth at 10 µM amounted to 71.8% in assay [1]; 99% in the assay with SN12C; 92.1% in assay [2]; 94.4% in assay [3]; 117% with NCI-H460; 115% with A498 [5]. For the same compound, the growth at 10 µM in assay [6] was 86.4%; in the assay with CCRF-CEM it was 108%; in assay [7], 100%. In the assay on NCI-H226 [4], the mortality at 10 µM came out at 1%.
For the compound `CCCCCCCCCCCCCCCC(=O)NCCCC[C@H](NC(=O)[C@H](C)NC(=O)[C@H](CCCCN)NC(=O)[C@H](C)NC(=O)[C@H](CC(C)C)NC(=O)[C@H](CCCCN)NC(=O)[C@H](C)NC(=O)[C@H](CC(C)C)NC(=O)[C@H](CCCCN)NC(=O)[C@H](CCCCN)NC(=O)[C@H](C)NC(=O)[C@H](CC(C)C)NC(=O)[C@H](CCCCN)NC(=O)[C@H](C)NC(=O)[C@H](CC(C)C)NC(=O)[C@H](CCCCN)NC(=O)[C@@H](N)CC(=O)O)C(N)=O`, the growth at 7.25 µM in assay [8] is 99.8%; in assay [9], 104%; in the assay with A498 [10], 111%; in the assay with KM12 it was 110%; in the assay on NCI-H522 [11], 83.5%; in assay [12], 101%. The figures for the growth at 7.25 µM (with EKVX; in assay [13]) were 105% and 111%, respectively.
For the compound `CCCCCCCCCCCCCCCCNCCO[C@H]1C[C@H](n2cc(C)c(=O)[nH]c2=O)O[C@@H]1C(=O)NCCCC[C@H](NC(=O)[C@H](C)NC(=O)[C@H](CCCCN)NC(=O)[C@H](C)NC(=O)[C@H](CC(C)C)NC(=O)[C@H](CCCCN)NC(=O)[C@H](C)NC(=O)[C@H](CC(C)C)NC(=O)[C@H](CCCCN)NC(=O)[C@H](CCCCN)NC(=O)[C@H](C)NC(=O)[C@H](CC(C)C)NC(=O)[C@H](CCCCN)NC(=O)[C@H](C)NC(=O)[C@H](CC(C)C)NC(=O)[C@H](CCCCN)NC(=O)[C@@H](N)CC(=O)O)C(N)=O`, the growth at 2.13 µM was 81.2% in assay [14]; 68.7% in the assay on A549; 106% in the assay on ACHN; 109% in assay [16]; 105% with SK-MEL-5; 109% in the assay on MDA-MB-435. For the same compound, the figures for the growth at 2.13 µM (in the assay with NCI-H226 [17]; in [18]) were 96.5% and 75.8%, respectively. Besides, the mortality at 2.13 µM in the assay with NCI-H522 [15] was 11%.
